Tests used:
Test in all cases: GABA concentration-response, TEVC electrophysiology in Xenopus oocytes
Assay type in all cases: cell-based
Settings in all cases: GABA as agonist
human α2β2γ2S GABAAR = molecular target: T1, human α2β2γ2S GABAAR (Homo sapiens, UniProt P18507+P47869+P47870)
T1 construct: expressed in transfected cells; host or cells: Xenopus laevis oocytes (cRNA injection, α:β2:γ2S 1:1:1; 1:1:5 in the zolpidem comparison)
Experimental: (§1) The cDNAs encoding the human GABAAR subunits were linearized with DraIII (α1, α2, α3, α5 and α6), SmaI (β2 and γ2S) or StuI (δ) and used as templates for in vitro cRNA synthesis using the T7 mMESSAGE mMACHINE High Yield Capped RNA Transcription Kit (Life Technologies Corporation, Carlsbad, CA, USA). Except where otherwise indicated, Xenopus oocytes were injected with 36.8 nL cRNA solution encoding for α1β2γ2S, α2β2γ2S, α3β2γ2S and α5β2γ2S GABAARs in a 1:1:1 α:β2:γ2S ratio (2.7 ng/μL of each subunit), with 46 nL cRNA solution encoding for the α6β2δ GABAAR in a 10:1:10 α6:β2:δ ratio (1:0.1:1 μg/μL), with 18 nL cRNA solution encoding for the α1β2 GABAAR in a 1:1 α1:β2 ratio (0.6:0.6 μg/μL), or with 46 nL cRNA encoding for α6β2 (α6:β2 ratio: 1:0.1 μg/μL). Following injection, the oocytes were incubated at 18°C in modified Barth’s solution [88 mM NaCl, 1 mM KCl, 15 mM HEPES (pH 7.5), 2.4 mM NaHCO3, 0.41 mM CaCl2, 0.82 mM MgSO4, 0.3 mM Ca(NO3)2, 100 U/mL penicillin and 100 μg/mL streptomycin]. Electrophysiological recordings were performed 3 to 6 days after injection.
(§2) Electrophysiological recordings were performed using the TEVC technique on Xenopus oocytes expressing various GABAAR combinations using a protocol adapted from previous studies. […] Cells were impaled with agar-plugged 0.5–1 MΩ electrodes containing 3 M KCl and voltage clamped at −70 mV by a Gene Clamp 500B amplifier (Axon Instruments, Union City, CA, USA) and recorded with pClamp 10 (Windows version, Molecular Devices, LLC, Sunnyvale, CA, USA). The oocytes were continuously perfused with Ringer buffer, and the test compounds were applied in the perfusate. Experiments were performed at room temperature and each data point represents the mean ± S.E.M. value of recordings performed on at least two oocytes from at least two different batches of oocytes. The recorded baseline-to-peak current amplitudes were analyzed using Clampfit 10.1 (Axon Instruments, Union City, CA, USA). […]

human α3β2γ2S GABAAR = molecular target: T2, human α3β2γ2S GABAAR (Homo sapiens, UniProt P18507+P34903+P47870)
T2 construct: expressed in transfected cells; host or cells: Xenopus laevis oocytes (cRNA injection, 1:1:1)
T2 sequence (P34903 29-492): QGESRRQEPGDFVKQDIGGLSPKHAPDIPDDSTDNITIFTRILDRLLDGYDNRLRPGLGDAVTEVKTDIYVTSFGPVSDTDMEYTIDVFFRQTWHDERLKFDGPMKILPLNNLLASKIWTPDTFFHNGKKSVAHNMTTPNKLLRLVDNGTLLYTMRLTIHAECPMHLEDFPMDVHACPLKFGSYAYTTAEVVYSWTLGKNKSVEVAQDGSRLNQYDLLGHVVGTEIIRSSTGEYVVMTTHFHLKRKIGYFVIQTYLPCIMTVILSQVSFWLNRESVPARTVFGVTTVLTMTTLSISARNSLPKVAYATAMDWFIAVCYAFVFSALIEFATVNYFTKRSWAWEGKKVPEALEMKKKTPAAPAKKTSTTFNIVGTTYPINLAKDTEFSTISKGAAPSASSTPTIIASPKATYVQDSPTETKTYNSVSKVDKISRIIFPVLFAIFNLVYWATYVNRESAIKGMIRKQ
T2 sequence (P47870 26-474 isoform P47870-1 limits assumed): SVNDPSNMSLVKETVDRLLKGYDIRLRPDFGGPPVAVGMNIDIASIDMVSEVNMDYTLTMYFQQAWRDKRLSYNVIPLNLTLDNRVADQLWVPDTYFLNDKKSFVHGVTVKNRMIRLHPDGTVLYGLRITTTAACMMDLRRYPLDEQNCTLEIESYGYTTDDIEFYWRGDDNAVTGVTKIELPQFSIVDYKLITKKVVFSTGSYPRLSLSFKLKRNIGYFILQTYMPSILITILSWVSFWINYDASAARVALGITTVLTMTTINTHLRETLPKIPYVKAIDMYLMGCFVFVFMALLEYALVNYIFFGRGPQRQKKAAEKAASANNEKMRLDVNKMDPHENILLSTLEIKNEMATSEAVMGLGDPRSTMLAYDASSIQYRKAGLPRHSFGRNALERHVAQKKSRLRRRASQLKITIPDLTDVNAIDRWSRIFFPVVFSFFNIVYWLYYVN
T2 sequence (P18507 40-467 isoform P18507-1 limits assumed): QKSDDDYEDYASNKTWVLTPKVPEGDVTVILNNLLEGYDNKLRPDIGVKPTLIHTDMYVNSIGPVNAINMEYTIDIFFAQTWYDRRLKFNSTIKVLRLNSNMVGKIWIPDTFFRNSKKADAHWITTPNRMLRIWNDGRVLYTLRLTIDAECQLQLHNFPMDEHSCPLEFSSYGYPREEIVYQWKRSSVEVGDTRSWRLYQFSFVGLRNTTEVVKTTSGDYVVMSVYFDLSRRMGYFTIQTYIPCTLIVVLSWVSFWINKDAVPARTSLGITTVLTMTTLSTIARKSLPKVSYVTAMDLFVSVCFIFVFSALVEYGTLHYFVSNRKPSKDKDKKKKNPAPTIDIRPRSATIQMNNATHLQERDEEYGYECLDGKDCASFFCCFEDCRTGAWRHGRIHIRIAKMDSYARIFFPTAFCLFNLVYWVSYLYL
Experimental: as §1, §2

human α5β2γ2S GABAAR = molecular target: T3, human α5β2γ2S GABAAR (Homo sapiens, UniProt P18507+P31644+P47870)
T3 construct: expressed in transfected cells; host or cells: Xenopus laevis oocytes (cRNA injection, 1:1:1)
T3 sequence (P31644 32-462): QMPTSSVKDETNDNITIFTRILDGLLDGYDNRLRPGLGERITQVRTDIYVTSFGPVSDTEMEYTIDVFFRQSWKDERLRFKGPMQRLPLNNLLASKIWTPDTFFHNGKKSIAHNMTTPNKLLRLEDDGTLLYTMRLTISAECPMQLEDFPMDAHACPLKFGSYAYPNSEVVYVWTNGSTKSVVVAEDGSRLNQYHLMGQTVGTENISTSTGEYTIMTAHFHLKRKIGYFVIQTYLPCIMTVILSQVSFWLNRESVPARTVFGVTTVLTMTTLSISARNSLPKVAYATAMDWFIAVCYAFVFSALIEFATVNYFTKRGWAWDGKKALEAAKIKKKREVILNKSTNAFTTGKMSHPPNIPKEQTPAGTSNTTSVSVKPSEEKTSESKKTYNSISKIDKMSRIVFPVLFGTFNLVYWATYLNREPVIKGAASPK
T3 sequence (P47870 26-474 isoform P47870-1 limits assumed): as the sequence (P47870 26-474 isoform P47870-1 limits assumed) above
T3 sequence (P18507 40-467 isoform P18507-1 limits assumed): as the sequence (P18507 40-467 isoform P18507-1 limits assumed) above
Experimental: as §1, §2

human α6β2 GABAAR = molecular target: T4, human α6β2 GABAAR (Homo sapiens, UniProt P47870+Q16445)
T4 construct: expressed in transfected cells; host or cells: Xenopus laevis oocytes (cRNA injection)
T4 sequence (Q16445 20-453): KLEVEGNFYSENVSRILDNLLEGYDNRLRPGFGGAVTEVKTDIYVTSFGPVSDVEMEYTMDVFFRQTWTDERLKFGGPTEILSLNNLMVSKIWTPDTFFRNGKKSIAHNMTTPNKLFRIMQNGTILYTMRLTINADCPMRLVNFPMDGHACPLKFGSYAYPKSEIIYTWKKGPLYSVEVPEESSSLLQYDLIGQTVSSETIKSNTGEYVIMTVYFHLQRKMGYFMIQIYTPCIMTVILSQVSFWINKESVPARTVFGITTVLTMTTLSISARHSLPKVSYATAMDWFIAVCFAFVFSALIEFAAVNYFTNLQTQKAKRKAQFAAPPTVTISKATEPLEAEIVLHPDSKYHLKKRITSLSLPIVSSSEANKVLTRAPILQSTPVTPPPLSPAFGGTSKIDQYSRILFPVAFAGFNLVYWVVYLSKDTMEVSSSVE
T4 sequence (P47870 26-474 isoform P47870-1 limits assumed): as the sequence (P47870 26-474 isoform P47870-1 limits assumed) above
Experimental: as §1, with “Following injection, the oocytes were incubated at 18°C in modified Barth’s solution [88 mM NaCl, 1 mM KCl, 15 mM HEPES (pH 7.5), 2.4 mM NaHCO3, 0.41 mM CaCl2, 0.82 mM MgSO4, 0.3 mM Ca(NO3)2, 100 U/mL penicillin and 100 μg/mL streptomycin]. Electrophysiological recordings were performed 3 to 6 days after injection.” left out
as §2, with “The oocytes were continuously perfused with Ringer buffer, and the test compounds were applied in the perfusate. Experiments were performed at room temperature and each data point represents the mean ± S.E.M. value of recordings performed on at least two oocytes from at least two different batches of oocytes.” left out

human α1β2γ2S GABAAR = human α1β2γ2S GABAAR (Homo sapiens, UniProt P14867+P18507+P47870); parameters: expressed in transfected cells; host or cells: Xenopus laevis oocytes (cRNA injection, α:β2:γ2S 1:1:1)
Chain of human α1β2γ2S GABAAR (P14867 28-456): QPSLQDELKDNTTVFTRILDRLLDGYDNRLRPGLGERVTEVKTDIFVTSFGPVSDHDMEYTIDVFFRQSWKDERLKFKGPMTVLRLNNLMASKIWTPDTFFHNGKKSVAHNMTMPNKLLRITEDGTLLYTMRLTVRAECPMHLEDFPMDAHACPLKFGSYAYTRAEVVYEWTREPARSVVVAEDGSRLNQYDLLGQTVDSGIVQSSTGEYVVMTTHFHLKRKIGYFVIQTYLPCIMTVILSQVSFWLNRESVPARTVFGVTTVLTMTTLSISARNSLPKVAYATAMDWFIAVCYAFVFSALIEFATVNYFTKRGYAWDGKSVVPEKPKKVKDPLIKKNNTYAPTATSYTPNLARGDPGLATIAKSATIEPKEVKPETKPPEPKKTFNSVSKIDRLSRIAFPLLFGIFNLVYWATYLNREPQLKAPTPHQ
Chain of human α1β2γ2S GABAAR (P47870 26-474 isoform P47870-1 limits assumed): as the sequence (P47870 26-474 isoform P47870-1 limits assumed) above
Chain of human α1β2γ2S GABAAR (P18507 40-467 isoform P18507-1 limits assumed): as the sequence (P18507 40-467 isoform P18507-1 limits assumed) above
Experimental: as §1, with “Following injection, the oocytes were incubated at 18°C in modified Barth’s solution [88 mM NaCl, 1 mM KCl, 15 mM HEPES (pH 7.5), 2.4 mM NaHCO3, 0.41 mM CaCl2, 0.82 mM MgSO4, 0.3 mM Ca(NO3)2, 100 U/mL penicillin and 100 μg/mL streptomycin]. Electrophysiological recordings were performed 3 to 6 days after injection.” left out
as §2, with “The oocytes were continuously perfused with Ringer buffer, and the test compounds were applied in the perfusate. Experiments were performed at room temperature and each data point represents the mean ± S.E.M. value of recordings performed on at least two oocytes from at least two different batches of oocytes.” left out

T1 sequence (P47869 29-451): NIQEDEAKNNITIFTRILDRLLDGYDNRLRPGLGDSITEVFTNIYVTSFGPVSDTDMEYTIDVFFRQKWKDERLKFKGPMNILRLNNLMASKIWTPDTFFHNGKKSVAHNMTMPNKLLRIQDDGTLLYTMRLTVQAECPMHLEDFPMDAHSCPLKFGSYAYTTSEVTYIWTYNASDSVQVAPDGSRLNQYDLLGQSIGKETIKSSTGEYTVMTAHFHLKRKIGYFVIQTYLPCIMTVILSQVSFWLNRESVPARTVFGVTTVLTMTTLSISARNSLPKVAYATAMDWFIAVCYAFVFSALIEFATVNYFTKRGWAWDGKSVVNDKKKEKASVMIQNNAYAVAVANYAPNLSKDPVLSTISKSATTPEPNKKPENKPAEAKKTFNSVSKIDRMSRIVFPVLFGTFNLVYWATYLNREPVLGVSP
T1 sequence (P47870 26-474 isoform P47870-1 limits assumed): as the sequence (P47870 26-474 isoform P47870-1 limits assumed) above
T1 sequence (P18507 40-467 isoform P18507-1 limits assumed): as the sequence (P18507 40-467 isoform P18507-1 limits assumed) above

NCCCC(=O)O [GABA, γ-aminobutyric acid]
Hill slope nH ± S.E.M. (human α2β2γ2S GABAAR): 1.44 ± 0.07
Hill slope nH ± S.E.M. (human α3β2γ2S GABAAR): 1.22 ± 0.05
Hill slope nH ± S.E.M. (human α5β2γ2S GABAAR): 1.19 ± 0.08
Hill slope nH ± S.E.M. (human α6β2 GABAAR): 0.89 ± 0.09
Hill slope nH ± S.E.M. (human α1β2γ2S GABAAR): 1.19 ± 0.05

From article PMC4370687, “Functional Characterization of the 1,5-Benzodiazepine Clobazam and Its Major Active Metabolite N-Desmethylclobazam at Human GABAA Receptors Expressed in Xenopus laevis Oocytes” (PLoS ONE, 2015)
